What was measured:
[1] = target: native galectin-1 (native lectin) (Cricetulus griseus, UniProt P48538); test: Equilibrium dialysis, binding of N-acetyllactosamine; set-up: species or system hamster; settings: stated as similar affinity to the mutants
Protocol: (§1) To investigate whether dimerization of the galectin-1 is required to induce apoptosis, mutated forms of galectin-1 were prepared. Recombinant hamster galectin-1, which is highly homologous in sequence with bovine and human galectin-1 with 100% identity at the N- and C-termini positions was used. The protein was prepared as described in Cho and Cummings, 1995b, J. Biol. Chem., 270:5198-5206, ibid, J. Biolchem, 270:5207, 1995. This protein (monomeric or dimeric) contains a stabilizing mutation in which Cys at the 2nd residue was converted to Ser.
Specific mutations were created in the N- and C-termini of hamster galectin-1, as indicated in FIG. 3 and as described in further detail in Cho and Cummings, Biochemistry, 35:13081, 1996, which is hereby incorporated by reference herein in its entirety. C2S-Gal-1 contains a single replacement of Cys-2 to Ser. V5D-Gal-1 contains a single mutation of Val-5 to Asp. N-Gal-1 contains disruptions of three hydrophobic amino acids at the N-terminus. We also made another mutant construct, termed N/C-Gal-1, which contained the amino terminal changes of N-Gal-1 in addition to multiple changes in specific hydrophobic amino acids at the C-terminus (data not shown). All mutants, except for C2S-Gal-1, behaved as monomers in size exclusion HPLC and native gel electrophoresis. […]

[2] = target: T1, hamster galectin-1 mutant V5D-Gal-1 (Val-5 to Asp) (Cricetulus griseus, UniProt P48538, V6D); test: as above
T1 construct: made in house; host or cells: E. coli (for the recombinant CHO galectin-1)
T1 sequence (P48538 whole entry V6D): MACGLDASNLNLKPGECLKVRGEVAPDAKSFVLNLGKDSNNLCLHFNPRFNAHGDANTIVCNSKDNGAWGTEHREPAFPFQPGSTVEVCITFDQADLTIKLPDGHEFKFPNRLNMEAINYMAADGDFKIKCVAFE
Protocol: as §1
(§2) Specific mutations were created in the N- and C-termini of hamster galectin-1, as indicated in FIG. 3 and as described in further detail in Cho and Cummings, Biochemistry, 35:13081, 1996, which is hereby incorporated by reference herein in its entirety. C2S-Gal-1 contains a single replacement of Cys-2 to Ser. V5D-Gal-1 contains a single mutation of Val-5 to Asp. N-Gal-1 contains disruptions of three hydrophobic amino acids at the N-terminus. We also made another mutant construct, termed N/C-Gal-1, which contained the amino terminal changes of N-Gal-1 in addition to multiple changes in specific hydrophobic amino acids at the C-terminus (data not shown). All mutants, except for C2S-Gal-1, behaved as monomers in size exclusion HPLC and native gel electrophoresis. C2S-Gal-1 was indistinguishable from the native lectin in its ability to undergo monomer-dimer equilibrium and in its carbohydrate-binding affinity. […] However, in equilibrium dialysis N-Gal-1 and V5D-Gal-1 bound N-acetyllactosamine with similar affinity (Kd 90 μM) to that of the C2S-Gal-1 and the native lectin. […] N/C-Gal-1 was non-functional.

[3] = target: T2, hamster galectin-1 mutant C2S-Gal-1 (Cys-2 to Ser) (Cricetulus griseus, UniProt P48538, C3S); test: as above; settings: stated as similar affinity to the mutants
T2 construct: made in house; host or cells: E. coli (for the recombinant CHO galectin-1)
T2 sequence (P48538 whole entry C3S): as the sequence (P48538 whole entry V6D) above, with C3S, D6V counted along it
Protocol: as §1, §2

[4] = target: T3, hamster galectin-1 mutant N-Gal-1 (monomeric; disruptions of three hydrophobic amino acids at the N-terminus) (Cricetulus griseus, UniProt P48538, A7S/C3S/L5Q/V6D); test: as above
T3 construct: made in house; host or cells: E. coli (for the recombinant CHO galectin-1)
T3 sequence (P48538 2-135 C3S/L5Q/V6D/A7S limits assumed): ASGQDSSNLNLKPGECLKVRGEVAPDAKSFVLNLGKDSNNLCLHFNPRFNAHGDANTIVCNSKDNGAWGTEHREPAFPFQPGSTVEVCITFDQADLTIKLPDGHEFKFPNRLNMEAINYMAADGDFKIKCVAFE
Protocol: as §1, §2

[5] = target: T4, recombinant galectin-1 (Cys at the 2nd residue converted to Ser) (Cricetulus griseus, UniProt P48538, C3S); test: Galectin-1 agglutination of activated neutrophils and desialylated HL-60 cells, inhibition by sugars; assay type: cell-based, hamster
T4 construct: made in house; host or cells: E. coli (for the recombinant CHO galectin-1)
T4 sequence (P48538 whole entry C3S): as the sequence (P48538 whole entry V6D) above, with C3S, D6V counted along it
Protocol: In all cases cell binding of galectin-1 to cells was inhibited by 10 mM lactose, a known inhibitor of galectin-1 (FIG. 1), but not by 10 mM maltose, an isomeric, non-inhibitory analog (data not shown). We noted that both activated neutrophils and desialylated HL-60 cells are strongly agglutinated by galectin-1, whereas resting neutrophils and HL-60 cells are not appreciably agglutinated, which further underscores the profound differences in surface phenotypes between resting and activated neutrophils.
(§3) Annexin V is a protein that recognizes phosphatidyl serine (PS) and is a convenient marker for apoptosis of neutrophils and other cells (S. J. Martin, C. P. Reutelingsperger, A. J. McGahon, J. A. Rader, R. C. van Schie, D. M. LaFace and D. R. Green D R, J. Exp. Med., 182:1545, 1995; C. H. Homburg, M. de Haas, A. E. von dem Borne, A. J. Verhoeven, C. P. Reutelingsperger and D. Roos, Blood, 85:532, 1995; I. Vermes, C. Haanen, H. Steffens-Nakken, and C. Reutelingsperger, J. Immunol. Methods, 184:39, 1995; Z. Darzynkiewicz, G. Juan, X. Li, W. Gorczyca, T. Murakami, and F. Traganos, Cytometry 27:1, 1997). […] Within 90 minutes following treatment with 10 μM galectin-1, 36% of the activated neutrophils undergo apoptosis, as determined by their staining with annexin V (FIG. 2A). […]

[6] = target: T4, recombinant galectin-1 (Cys at the 2nd residue converted to Ser); test: Binding of biotinylated galectin-1 to activated neutrophils and desialylated HL-60 cells (flow cytometry), inhibition by sugars; assay type: cell-based, hamster; settings: sugar at 10 mM; galectin-1 10 μg/ml, 30 minutes on ice
Source text: Isolated neutrophils were activated by treatment with PMA and HL-60 cells were desialylated by treatment with neuraminidase. Heparinized blood was obtained from normal donors. Neutrophils were isolated by dextran sedimentation, hypotonic lysis, and density gradient centrifugation on Histopaque-1077 (Sigma), as described [G. A. Zimmerman, T. M. McIntyre, and S. M. Prescott, J. Clin. Invest., 76:2235, 1985]. Typically, the polymorphonuclear cells were >90% neutrophils by Wright-Giemsa staining and >90% CD16^+ as assessed by flow cytometry. Neutrophils were activated by treatment with phorbol myristate acetate (PMA) (Sigma) (0.5 μM) for 20 minutes at 37° C. in RPMI containing 20% FCS (0.5 ml). HL-60 cells were routinely maintained in RPMI containing 20% FCS. Desialylated HL-60 cells were prepared by treating 3×10^7 cells with Arthrobacter ureafaciens neuraminidase (Sigma) (100 mU) in 500 μl of RPMI containing 20% FCS for 1 hour at 37° C. […] The washed cells were incubated with FITC-streptavidin (1:100 dilution) (Sigma), washed once with PBS, and analyzed by flow cytometry. […] "Unstained" indicates fluorescence of either resting neutrophils or HL-60 cells incubated in the absence of either MAL or galectin-1. "Control" indicates fluorescence of either activated neutrophils or desialylated HL-60 cells incubated with galectin-1 in the presence of 10 mM lactose. […]

[7] = target: T4, recombinant galectin-1 (Cys at the 2nd residue converted to Ser); test: Galectin-1-induced apoptosis of activated neutrophils and desialylated HL-60 cells (annexin V), inhibition by sugars; assay type: cell-based, hamster; settings: galectin-1 10 μM; lactose 10 mM in the method
Protocol: Resting or activated neutrophils (3×10^6 cells) were treated with galectin-1 (10 μM) in 0.5 ml of HBSS (lacking Ca^2+ /Mg^2+ and containing 0.5% human albumin) for 90 minutes at 37° C. in the presence or absence of 10 mM lactose. HL-60 cells and desialylated HL-60 cells (3×10^6 cells/0.5 ml) were treated with galectin-1 (10 μM) for 20 hours at 37° C. in the presence or absence of 10 mM lactose. At the end of the incubations all cells were treated with 10 mM lactose in PBS to disaggregate the cells. […]
as §3

native galectin-1 (native lectin), sequence (P48538 2-135): as the sequence (P48538 2-135 C3S/L5Q/V6D/A7S limits assumed) above, with S2C, Q4L, D5V, S6A counted along it

CC(=O)N[C@H]1C(O)O[C@H](CO)[C@@H](O[C@@H]2O[C@H](CO)[C@H](O)[C@H](O)[C@H]2O)[C@@H]1O (stereo partly shown) [N-acetyllactosamine]
Kd [1]: ~90 µM | Kd [2]: 90 µM | Kd [3]: ~90 µM | Kd [4]: 90 µM

OC[C@H]1O[C@@H](O[C@H]2[C@H](O)[C@@H](O)C(O)O[C@@H]2CO)[C@H](O)[C@@H](O)[C@H]1O (stereo partly shown) [lactose]
inhibition of cell agglutinating activity of galectin-1 [5]: inhibited | inhibition of binding of galectin-1 to cells [6]: inhibited | inhibition of apoptosis-inducing activity of galectin-1 [7]: inhibited

OC[C@H]1O[C@H](O[C@H]2[C@H](O)[C@@H](O)[C@H](O)O[C@@H]2CO)[C@H](O)[C@@H](O)[C@@H]1O [maltose]
inhibition of cell agglutinating activity of galectin-1 [5]: not | inhibition of binding of galectin-1 to cells [6]: not | inhibition of apoptosis-inducing activity of galectin-1 [7]: not

From patent US6054315A, “Method for making activated neutrophils recognizable to macrophages” (The Board of Regents of the University of Oklahoma, priority 1997, dated 2000)
